From paper PMC5023282, “A rapid fluorometric assay for the S-malonyltransacylase FabD and other sulfhydryl utilizing enzymes” (Journal of Biological Methods, 2016)

Molecular target: T1, FabD (malonyl-coenzyme A transacylase; malonyl-CoA:ACP transacylase) (Escherichia coli, UniProt P0AAI9)
T1 construct: full ORF in pET28b (NcoI/EcoRI), one extra N-terminal glycine, no His tag; expressed in E. coli BL21* DE3
Assay: CPM fluorescence detection of CoA-SH after TCA precipitation of holo-ACP, initial rates
Type: biochemical
Details: holo-ACP 125 µM; 25 mM MOPS, 100 mM NaCl, 1 mg/ml BSA, pH 7.1, 30°C
Excerpt: CPM fluorescence detection of CoA-SH after TCA precipitation of holo-ACP, initial rates on FabD (malonyl-coenzyme A transacylase; malonyl-CoA:ACP transacylase)

T1 sequence (P0AAI9 2-309): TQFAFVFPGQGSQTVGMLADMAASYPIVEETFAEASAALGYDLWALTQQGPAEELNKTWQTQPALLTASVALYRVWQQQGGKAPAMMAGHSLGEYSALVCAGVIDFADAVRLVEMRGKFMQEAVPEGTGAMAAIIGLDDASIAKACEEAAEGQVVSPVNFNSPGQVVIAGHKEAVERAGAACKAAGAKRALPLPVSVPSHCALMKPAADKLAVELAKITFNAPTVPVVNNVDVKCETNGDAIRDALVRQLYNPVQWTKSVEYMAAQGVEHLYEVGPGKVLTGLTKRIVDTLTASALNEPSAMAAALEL

Km: 60 ± 20 µM
SMILES: CC(C)(COP(=O)(O)OP(=O)(O)OC[C@H]1O[C@@H](n2cnc3c(N)ncnc32)[C@H](O)[C@@H]1OP(=O)(O)O)[C@@H](O)C(=O)NCCC(=O)NCCSC(=O)CC(=O)O [malonyl-CoA]
